Experimental findings from ChEMBL document CHEMBL3351285, “Synthesis of chlorinated flavonoids with anti-inflammatory and pro-apoptotic activities in human neutrophils” (Eur J Med Chem, 2014) are described below.

A short description of data set [1]: Cytotoxicity against human neutrophils assessed as cell viability at 50 uM after 4 hrs by trypan blue assay. It counts as cell-based, Neutrophil. The following applies: read-out: Activity.
Data set [2] deals with Neutrophil. The data set is described as follows: Inhibition of PMA-induced oxidative burst in human neutrophils by chemiluminescence assay. It counts as functional, cell-based.
For data set [3], the system named is Neutrophil. The data set is described as follows: Inhibition of PMA-induced oxidative burst in human neutrophils by amplex red assay. It counts as functional, cell-based.
In data set [4] the test system is Neutrophil. In words: Inhibition of PMA-induced oxidative burst in human neutrophils by APF assay. Format: functional, cell-based.
In data set [5] the test system is Neutrophil. In words: Induction of apoptosis in human neutrophils assessed as necrotic cells at 50 uM after 4 hrs by Annexin-V-FLUOS staining based flow cytometry (reference value: 0.1%). Format: functional.
In data set [6] the test system is Neutrophil. The data set is described as follows: Induction of apoptosis in human neutrophils assessed as late apoptotic cells at 50 uM after 4 hrs by Annexin-V-FLUOS staining based flow cytometry (reference value: 0.5%). It counts as functional. (Flow cytometry measures light scatter and fluorescence of single cells or particles in a stream.)
Data set [7] deals with Neutrophil. In words: Induction of apoptosis in human neutrophils assessed as early apoptotic cells at 50 uM after 4 hrs by Annexin-V-FLUOS staining based flow cytometry (reference value: 9.7%). Format: functional.
The test system of data set [8] is Neutrophil. The data set is described as follows: Induction of apoptosis in human neutrophils assessed as viable cells at 50 uM after 4 hrs by Annexin-V-FLUOS staining based flow cytometry (reference value: 89.8%). Format: functional. The conditions noted are these: read-out: Activity.
Data set [9] concerns Neutrophil. The data set is described as follows: Induction of apoptosis in human neutrophils assessed as necrotic cells at 50 uM after 4 hrs by Annexin-V-FLUOS staining based flow cytometry in presence of Z-DEVD-FMK caspase 3 (reference value: 0.0%). Format: functional.
For data set [10], the system named is Neutrophil. The data set is described as follows: Induction of apoptosis in human neutrophils assessed as late apoptotic cells at 50 uM after 4 hrs by Annexin-V-FLUOS staining based flow cytometry in presence of Z-DEVD-FMK caspase 3 (reference value: 0.8%). It counts as functional.
Data set [11] concerns Neutrophil. The data set is described as follows: Induction of apoptosis in human neutrophils assessed as early apoptotic cells at 50 uM after 4 hrs by Annexin-V-FLUOS staining based flow cytometry in presence of Z-DEVD-FMK caspase 3 (reference value: 10.1%). Format: functional.
Data set [12] deals with Neutrophil. The data set is described as follows: Induction of apoptosis in human neutrophils assessed as viable cells at 50 uM after 4 hrs by Annexin-V-FLUOS staining based flow cytometry in presence of Z-DEVD-FMK caspase 3 (reference value: 89.0%). Format: functional. The conditions noted are these: read-out: Activity.
The test system of data set [13] is Neutrophil. The data set is described as follows: Inhibition of PMA-induced oxidative burst in human neutrophils at 50 uM by chemiluminescence assay. It counts as functional.
Data set [14] relates to Neutrophil. In words: Inhibition of PMA-induced oxidative burst in human neutrophils at 50 uM by amplex red assay. Format: functional.
The test system of data set [15] is Neutrophil. In words: Inhibition of PMA-induced oxidative burst in human neutrophils at 50 uM by APF assay. Format: functional.

Bounds are passed on as bounds.

`O=c1cc(-c2ccc(O)c(O)c2)oc2c(Cl)c(O)cc(O)c12`: in data set [1], the viability at 4 h, 50 µM was 98%. The results for the IC50 in the data set with Neutrophil [2], in the data set on Neutrophil [3] and with Neutrophil [4] were 2600 nM, 1600 nM and 2600 nM, respectively. The Activity came to 0% with Neutrophil [5]; 0.5% with Neutrophil [6]; 25.3% in the data set with Neutrophil [7]; 0% with Neutrophil [9]; 1% in the data set with Neutrophil [10]; 9.6% with Neutrophil [11]. Further, the viability at 50 µM was found to be 74.1% in the data set with Neutrophil [8] and 89.4% in the data set on Neutrophil [12].
On to `O=c1cc(-c2ccc(O)c(O)c2)oc2c(Cl)c(O)c(Cl)c(O)c12`, for which, in data set [1], the viability at 4 h, 50 µM came out at 98%. The figures for the concentration for half-maximal inhibition (IC50) with Neutrophil [2], in the data set on Neutrophil [3] and in the data set on Neutrophil [4] were 3400 nM, 6200 nM and 7200 nM, respectively. Also, the Activity in the data set with Neutrophil [5] is 0.1%; in the data set on Neutrophil [6] it was 0.9%; in the data set with Neutrophil [7] it was 15.3%. Besides, in the data set on Neutrophil [8], the viability at 50 µM worked out at 83.7%.
Turning to `O=c1c(Cl)c(-c2ccc(O)c(O)c2)oc2cc(O)cc(O)c12`, the viability at 4 h, 50 µM in [1] was 98%. Further, the half-maximal inhibitory concentration (IC50) (usually the concentration that gives 50% inhibition) with Neutrophil [2] worked out at 2000 nM; in the data set on Neutrophil [3], 1400 nM; in the data set with Neutrophil [4], 400 nM.
On to `O=c1c(Cl)c(-c2ccc(O)c(O)c2)oc2c(Cl)c(O)cc(O)c12`, for which the viability at 4 h, 50 µM in [1] worked out at 98%. The concentration for half-maximal inhibition (IC50) was determined as 4600 nM in the data set with Neutrophil [2], 1700 nM in the data set on Neutrophil [3] and 1800 nM in the data set with Neutrophil [4].
With `O=c1cc(-c2ccccc2)oc2ccccc12` [FLAVONE], the viability at 4 h, 50 µM in data set [1] amounted to 98%. Also, the inhibition at 50 µM with Neutrophil [13], with Neutrophil [14] and with Neutrophil [15] was < 40% in each case.
Consider `O=c1cc(-c2ccc(O)c(O)c2)oc2cc(O)cc(O)c12` [LUTEOLIN], for which the viability at 4 h, 50 µM in [1] was determined as 98%. The results for the IC50 with Neutrophil [2], in the data set with Neutrophil [3] and in the data set on Neutrophil [4] were 5200 nM, 1700 nM and 2200 nM, respectively. Moreover, the Activity with Neutrophil [5] was found to be 0.1%; with Neutrophil [6], 1.1%; in the data set on Neutrophil [7], 20.2%. Further, the viability at 50 µM with Neutrophil [8] turned out to be 78.6%.
As to `O=c1c(O)c(-c2ccc(O)c(O)c2)oc2cc(O)cc(O)c12` [QUERCETIN], the viability at 4 h, 50 µM in [1] turned out to be 98%. Also, the IC50 was found to be 2800 nM with Neutrophil [2], 2700 nM with Neutrophil [3] and 1800 nM with Neutrophil [4]. Further, the Activity in the data set on Neutrophil [5] was determined as 0.1%; with Neutrophil [6] it was 0.6%; in the data set on Neutrophil [7], 14.6%. In the data set with Neutrophil [8], the viability at 50 µM was 84.7%.
